Laboratory results reported in patent US20150259295A1, “SUBSTITUTED PYRAZOLE COMPOUNDS AS LPAR ANTAGONISTS” (Hoffmann-La Roche Inc., priority 2012, published 2015).

How the values were obtained:
[1] = target: T1, LPA3R (Homo sapiens, UniProt Q9UBY5); assay: LPA3R antagonist activity (Table 1, calcium flux FLIPR); type: cell-based
T1 sequence (Q9UBY5 1-353): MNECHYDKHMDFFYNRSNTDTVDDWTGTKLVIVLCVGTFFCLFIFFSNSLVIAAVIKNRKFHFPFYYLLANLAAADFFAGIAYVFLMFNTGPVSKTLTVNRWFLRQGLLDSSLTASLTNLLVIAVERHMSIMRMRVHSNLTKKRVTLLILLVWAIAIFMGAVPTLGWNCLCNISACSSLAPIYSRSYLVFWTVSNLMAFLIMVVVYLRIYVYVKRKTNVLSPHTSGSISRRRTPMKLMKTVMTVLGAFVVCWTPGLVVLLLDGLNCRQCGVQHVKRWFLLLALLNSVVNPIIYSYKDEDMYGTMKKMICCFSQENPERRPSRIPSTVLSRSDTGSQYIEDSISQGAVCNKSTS
Method: (§1) Calcium Flux Assay Using Fluorometric Imaging Plate Reader (FLIPR)
(§2) After incubation, both the cell and “assay” plates were brought to the FLIPR and 20 μL of the diluted compounds were transferred to the cell plates by the FLIPR. Compound addition was monitored by FLIPR to detect any agonist activity of the compounds. Plates were then incubated for 30 minutes at room temperature protected from light. After the incubation, plates were returned to the FLIPR and 20 μL of 4.5× concentrated agonist was added to the cell plates. During the assay, fluorescence readings were taken simultaneously from all 384 wells of the cell plate every 1.5 seconds. Five readings were taken to establish a stable baseline, then 20 μL of sample was rapidly (30 μL/sec) and simultaneously added to each well of the cell plate. The fluorescence was continuously monitored before, during and after sample addition for a total elapsed time of 100 seconds. Responses (increase in peak fluorescence) in each well following agonist addition was determined. The initial fluorescence reading from each well, prior to ligand stimulation, was used as zero baseline value for the data from that well. The responses were expressed as % inhibition of the buffer control.

[2] = target: human recombinant LPA1 Lysophospholipid receptor (Homo sapiens, UniProt Q92633); assay: Calcium flux assay using FLIPR, LPA1R antagonist activity; type: cell-based; settings: for IC50: ChemiScreen calcium-optimized stable cell line, FLIPR calcium flux, antagonist mode
Chain of human recombinant LPA1 Lysophospholipid receptor (Q92633 whole entry): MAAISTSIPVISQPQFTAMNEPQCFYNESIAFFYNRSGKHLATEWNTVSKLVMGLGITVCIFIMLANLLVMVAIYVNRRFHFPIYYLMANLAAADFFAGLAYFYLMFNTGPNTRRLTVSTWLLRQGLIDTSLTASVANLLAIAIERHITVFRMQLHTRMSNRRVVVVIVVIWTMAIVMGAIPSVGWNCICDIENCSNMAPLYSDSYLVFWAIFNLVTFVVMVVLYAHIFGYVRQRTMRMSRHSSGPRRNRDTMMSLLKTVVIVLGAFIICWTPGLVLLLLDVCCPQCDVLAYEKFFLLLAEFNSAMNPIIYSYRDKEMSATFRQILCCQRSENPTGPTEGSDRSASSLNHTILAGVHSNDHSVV
Method: as §1
Cell Culture Conditions: The ChemiScreen Calcium-optimized stable cell line containing the human recombinant LPA1 Lysophospholipid receptor was purchased from Chemicon International, Inc./Millipore. The cells were cultured in DMEM-high glucose supplemented with 10% fetal bovine serum, 2 mM glutamine, 100 U/mL penicillin/100 μg/mL streptomycin, 1× non-essential amino acids, 10 mM HEPES and 0.25 mg/mL Geneticin. Cells were harvested with trypsin-EDTA and counted using ViaCount reagent. The cell suspension volume was adjusted to 2.0×10^5 cells/mL with complete growth media. Aliquots of 50 μL were dispensed into 384 well black/clear tissue culture treated plates (BD) and the microplates were placed in a 37° C. incubator overnight. The following day plates were used in the assay.
Dye Loading and Assay: Loading Buffer (FLIPR Calcium-4, Molecular Devices) was prepared by dissolving the contents of one bottle into 100 mL Hank's Balanced Salt Solution containing 20 mM HEPES and 2.5 mM probenecid. Plates were loaded onto Biotek plate washer and growth media was removed and replaced with 20 µL of Hank's Balanced Salt Solution containing 20 mM HEPES and 2.5 mM probenecid, followed by 25 μL of Loading Buffer. The plates were then incubated for 30 minutes at 37° C.
During the incubation, test compounds were prepared by adding 90 μL of HBSS/20 mM HEPES/0.1% BSA buffer to 2 μL of serially diluted compounds. To prepare serial dilutions, 10 mM stocks of compounds were prepared in 100% DMSO. The compound dilution plate was set up as follows: well #1 received 29 μL of stock compound and 31 μL DMSO; wells 2-10 received 40 μL of DMSO; mixed and transferred 20 μL of solution from well #1 into well #2; continued with 1:3 serial dilutions out 10 steps; transferred 2 μL of diluted compound into duplicate wells of 384 well “assay plate” and then added the 90 μL of buffer.
as §2

| IC50 [1] [µM] | inhibition at 30 µM [2] [%] | IC50 [2] [µM] | SMILES |
| --- | --- | --- | --- |
| > 30 | 50.5 | 24.6 | CC(OC(=O)Nc1c(-c2ccccc2F)cnn1C)c1cccc(C(F)(F)F)c1 (racemic) [Example 12, [4-(2-Fluoro-phenyl)-2-methyl-2H-pyrazol-3-yl]-carbamic acid 1-(3-trifluoromethyl-phenyl)-ethyl ester] |
| > 30 | – | 1.4 | CC(OC(=O)Nc1c(-c2ccccc2F)cnn1C)c1ccccc1Cl (racemic) [Example 13, [4-(2-Fluoro-phenyl)-2-methyl-2H-pyrazol-3-yl]-carbamic acid 1-(2-chloro-phenyl)-ethyl ester] |
| > 30 | 64.8 | 17.5 | C[C@@H](OC(=O)Nc1c(-c2ccccc2)cnn1C)c1ccccc1 [Example 1, 2-Methyl-4-phenyl-2H-pyrazol-3-yl-carbamic acid (R)-1-phenyl-ethyl ester] |
| > 30 | – | 0.035 | C[C@@H](OC(=O)Nc1c(-c2ccc(-c3ccc(CC(=O)O)cc3)cc2)cnn1C)c1ccccc1 [Example 2, {4′-[1-Methyl-5-((R)-1-phenyl-ethoxycarbonylamino)-1H-pyrazol-4-yl]-biphenyl-4-yl}-acetic acid] |
| – | – | 3.59 | CC(OC(=O)Nc1c(-c2ccccc2)cnn1C)c1ccccc1Cl (stereo not drawn) [Example 3, (2-Methyl-4-phenyl-2H-pyrazol-3-yl)-carbamic acid 1-(2-chloro-phenyl)-ethyl ester] |
| > 30 | 65.9 | 1.59 | CCOC(=O)C1(c2ccc(-c3ccc(-c4cnn(C)c4NC(=O)O[C@H](C)c4ccccc4)cc3)cc2)CC1 [Example 4, 1-{4′-[1-Methyl-5-((R)-1-phenyl-ethoxycarbonylamino)-1H-pyrazol-4-yl]-biphenyl-4-yl}-cyclopropanecarboxylic acid ethyl ester] |
| 8.35 | – | 0.02 | C[C@@H](OC(=O)Nc1c(-c2ccc(-c3ccc(C4(C(=O)O)CC4)cc3)cc2)cnn1C)c1ccccc1 [Example 5, 1-{4′-[1-Methyl-5-((R)-1-phenyl-ethoxycarbonylamino)-1H-pyrazol-4-yl]-biphenyl-4-yl}-cyclopropanecarboxylic acid] |
| 2.47 | – | 0.112 | CC(OC(=O)Nc1c(-c2ccc(-c3ccc(C4(C(=O)O)CC4)cc3)cc2)cnn1C)c1ccccc1Cl (stereo not drawn) [Example 6, 1-(4′-{5-[1-(2-Chloro-phenyl)-ethoxycarbonylamino]-1-methyl-1H-pyrazol-4-yl}-biphenyl-4-yl)-cyclopropanecarboxylic acid] |
| > 30 | – | > 30 | C[C@@H](OC(=O)Nc1c(-c2ccc(-c3ccccc3)cc2)cnn1C)c1ccccc1 [Example 7, (4-Biphenyl-4-yl-2-methyl-2H-pyrazol-3-yl)-carbamic acid (R)-1-phenyl-ethyl ester] |
| > 30 | – | > 30 | COc1ccc(-c2cnn(C)c2NC(=O)O[C@H](C)c2ccccc2)cc1 [Example 8, [4-(4-Methoxy-phenyl)-2-methyl-2H-pyrazol-3-yl]-carbamic acid (R)-1-phenyl-ethyl ester] |
| > 30 | – | > 30 | C[C@@H](OC(=O)Nc1c(-c2ccc(C3(C(=O)O)CC3)cc2)cnn1C)c1ccccc1 [Example 9, 1-{4-[1-Methyl-5-((R)-1-phenyl-ethoxycarbonylamino)-1H-pyrazol-4-yl]-phenyl}-cyclopropanecarboxylic acid] |
| > 30 | – | > 30 | C[C@@H](OC(=O)Nc1c(-c2ccc(CC(=O)O)cc2)cnn1C)c1ccccc1 [Example 10, {4-[1-Methyl-5-((R)-1-phenyl-ethoxycarbonylamino)-1H-pyrazol-4-yl]-phenyl}-acetic acid] |
| – | – | 3.93 | CC(OC(=O)Nc1c(-c2ccc(F)cc2)cnn1C)c1ccccc1Cl (stereo not drawn) [Example 11, [4-(4-Fluoro-phenyl)-2-methyl-2H-pyrazol-3-yl]-carbamic acid 1-(2-chloro-phenyl)-ethyl ester] |
| > 30 | – | 0.107 | CC(C)[C@@H](C)OC(=O)Nc1c(-c2ccc(-c3ccc(C4(C(=O)O)CC4)cc3)cc2)cnn1C [Example 15, (R)-1-{4′-[5-(1,2-Dimethyl-propoxycarbonylamino)-1-methyl-1H-pyrazol-4-yl]-biphenyl-4-yl}-cyclopropanecarboxylic acid] |
| 5.8 | – | 0.024 | C[C@@H](OC(=O)Nc1c(-c2ccc(-c3ccc(C4(C(=O)O)CC4)cc3)cc2)cnn1C)c1ccccc1F [Example 16, (R)-1-{4′-[5-((1-(2-Fluorophenyl)ethoxy)carbonylamino)-1-methyl-1H-pyrazol-4-yl]-biphenyl-4-yl}-cyclopropanecarboxylic acid] |
| 0.478 | – | 0.042 | C[C@@H](OC(=O)Nc1c(-c2ccc(-c3ccc(C4(C(=O)O)CC4)cc3)cc2)cnn1C)c1cccc(C(F)(F)F)c1 [Example 17, (R)-1-{4′-[1-Methyl-5-((1-(3-(trifluoromethyl)phenyl)ethoxy)carbonylamino)-1H-pyrazol-4-yl]-biphenyl-4-yl}-cyclopropanecarboxylic acid] |
| 8.26 | – | 0.057 | CC(OC(=O)Nc1c(-c2ccc(-c3ccc(C4(C(=O)O)CC4)cc3)cc2)cnn1C)c1ccc(F)cc1 (stereo not drawn) [Example 18, 1-{4′-[5-((1-(4-fluorophenyl)ethoxy)carbonylamino)-1-methyl-1H-pyrazol-4-yl]-biphenyl-4-yl}-cyclopropanecarboxylic acid] |
| > 30 | – | > 30 | Cn1ncc(-c2ccc(-c3ccc(C4(C(=O)O)CC4)cc3)cc2)c1NC(=O)OC1COC1 [Example 20, 1-{4′-[1-Methyl-5-((oxetan-3-yloxy)carbonylamino)-1H-pyrazol-4-yl]-biphenyl-4-yl}-cyclopropanecarboxylic acid] |
| > 30 | 97.2 | 0.644 | C[C@@H](OC(=O)Nc1c(-c2ccccc2F)cnn1C)c1ccccc1Cl [Example 21, [4-(2-Fluoro-phenyl)-2-methyl-2H-pyrazol-3-yl]-carbamic acid (R)-1-(2-chloro-phenyl)-ethyl ester] |
| > 30 | – | > 30 | C[C@H](OC(=O)Nc1c(-c2ccccc2F)cnn1C)c1ccccc1Cl [Example 22, [4-(2-Fluoro-phenyl)-2-methyl-2H-pyrazol-3-yl]-carbamic acid (S)-1-(2-chloro-phenyl)-ethyl ester] |
| > 30 | – | > 30 | C[C@@H](OC(=O)Nc1c(-c2ccccc2F)cnn1C)c1cccc(C(F)(F)F)c1 [Example 23, [4-(2-Fluoro-phenyl)-2-methyl-2H-pyrazol-3-yl]-carbamic acid (R)-1-(3-trifluoromethyl-phenyl)-ethyl ester] |

| SMILES | IC50 [1] [µM] | inhibition at 30 µM [2] [%] | IC50 [2] [µM] |
| --- | --- | --- | --- |
| CC[C@@H](C)OC(=O)Nc1c(-c2ccc(-c3ccc(C4(C(=O)O)CC4)cc3)cc2)cnn1C [Example 14, (R)-1-{4′-[5-(sec-Butoxycarbonylamino)-1-methyl-1H-pyrazol-4-yl]-biphenyl-4-yl}-cyclopropanecarboxylic acid] | > 30 | – | 0.038 |
| Cn1ncc(-c2ccc(-c3ccc(C4(C(=O)O)CC4)cc3)cc2)c1NC(=O)OC1CCC1 [Example 19, 1-{4′-[5-(cyclobutoxycarbonylamino)-1-methyl-1H-pyrazol-4-yl]-biphenyl-4-yl}-cyclopropanecarboxylic acid] | > 30 | – | 0.176 |
